These results are taken from patent US11634381B2, “RUNX2 transcription factor inhibitors and uses thereof” (University of Maryland, Baltimore, priority 2015, dated 2023).

The test system of one experiment is breast cancer cells. Put plainly: Cell growth assay (crystal violet). The format is cell-based, human. The note with it: for inhibition at 50 µM: Homo sapiens, 72 hrs. From the text: Cells wereplated on 96-well (30,000 cells/well) or 24-well plates (50,000 cells/well). […] Cells were stained with crystal violet (0.5% in Methanol:Acetic Acid=3:1) and washed with PBS. Crystal violet was solubilized in DMSO and measured in a microplate reader at 592 nm.

In a further experiment the test system is MCF7-tet-off cells. Put plainly: 96 Well BME Cell Invasion Assay. To be noted: MCF7-tet-off (+Doxy) and (-Doxy), 50 μM, 24 hrs. The format is cell-based, human. The method, then: MCF7-tet-off cells were grown in the media with (+Doxy) or without doxycycline (−Dox) for 72 hours. Cells were then treated with compound 1 (50 μM) for 24 hrs, and trypsinized and suspended in serum-free media. Cells were re-plated in the top chamber precoated with 0.1× BME (Cultrex), and growth medium supplemented with 10% FBS was used as a chemoattractant in the bottom chamber. compound 1 was added to both chambers and incubated for 16 hrs. Cellular invasion was analyzed according to the 96 Well BME Cell Invasion Assay protocol (Cultrex).

A further experiment deals with BC cells. Nature of the experiment: Anchorage-independent cell growth assay (soft agar). The format is cell-based, human. To be noted: 50 μM. The method, then: Cells (10,000) were mixed in 1 ml of 0.3% low-melting agarose over a 0.6% agar bottom layer in normal growth media. The medium (600 μl) with or without compound 1 (50 μM) on soft agar was changed three times a week for 2-3 weeks. Images of MDA-231 and MCF7 were taken using Nikon Eclipse TE-2000S microscope with Zen Pro image software, and of MDA-468 using Olympus CKX41 microscope with Q-Capture Pro 7 image software at indicated magnifications under the same exposure settings for corresponding vehicle and drug treatments.

The next experiment has as its system Complex I. Nature of the experiment: Complex I activity. It is filed as cell-based, human. To be noted: MDA-468 and MCF7 cells, 50 μM, 1-3 days. The method, then: In FIG. 26A MDA-231, MDA-468, MCF7, and BT-474 breast cancer cells were treated with compound 1 (50 μM) for 1-3 days. Complex I activity increased in MDA-468 and MCF7 cells. In FIG. 26B T47D-Vector control or T47D-RUNX2-clone #10 overexpressing cells; MCF7-Vector Control or RUNX2-clone #2 overexpressing cells were treated with 50 μM compound 1 for 1 day.

The target in a further experiment is RUNX2 (Homo sapiens, UniProt Q13950). Put plainly: Western blot of RUNX2, RUNX1, CBF-β. The format is cell-based. On the set-up: endogenous in cells; host or cells: MDA-231, MDA-468. The procedure: Whole cell lysates extracted in RIPA buffer (Upstate) were separated on 4-12% gradient SDS-PAGE and transferred to nitrocellulose membrane. The blots were incubated with specific antibodies for each protein overnight at 4° C. After antibody washing, the blots were reacted with their respective secondary antibody and detected with enhanced chemiluminescence reagents (Millipore) according to the supplier's protocol. Antibodies for proteins were purchased as below. RUNX1, RUNX2, CBF-β, ubiquitin and caspase-3 (Cell Signaling Technologies), S451-p-RUNX2 (Bioss Gentaur, Belgium), RUNX3 and Glut-1 (Millipore, Calif.), β-actin and RUNX2 antibody for IHC (Sigma-Aldrich), and Ki-67 for IHC (Bethyl Laboratories, Inc, TX).
In general terms: In western blotting, separated proteins are transferred to a membrane and probed.

For a further experiment, the system named is sE-Cad. Put plainly: sE-Cad production by Western blot. It is filed as cell-based, human. The procedure:
MCF7 cells were grown to subconfluence in the presence or absence of doxycycline for 72 hr in full media as described above. Cells were then treated in minimal DMEM (Sigma, D5030) containing 0.1% BSA, 1% L-glutamine, 2% Tet-Approved FBS, and 1 mM glucose for 16 hours followed by treatment with 2 ng/mL TGFβ (R&D Systems, 240-B-002) for 48 hours in the presence or absence of EGTA to examine sE-Cad expression levels, TAZ localization, and HER2 expression levels. Cells were washed with PBS and scraped from plates. Cytoplasmic and nuclear lysates were obtained using the Low/High Salt extraction method. Cytoplasmic extracts were obtained by resuspending cells in NP40 containing Hypotonic Buffer (10 mM HEPES pH 7.4, 1.5 mM MgCl2, 10 mM KCI, 0.5% NP40) followed by a 30 min incubation on ice and centrifiugation. Nuclear extracts were obtained by resuspending the nuclear pellet in an equal volume of low salt buffer (10 mM HEPES, 25% glycerol, 1.5 mM MgCl2, 20 mM KCI, 0.2 mM EDTA) followed by high salt buffer (10 mM HEPES, 25% glycerol, 1.5 mM MgCl2, 800 mM KCl, 0.2 mM EDTA) followed by vortexing, 30 min incubation on ice, another vortex, and centrifugation. Samples were resolved on 4-12% Bis-Tris polyacrylamide gradient gels (Invitrogen) and transferred to PVDF membranes (Millipore). […] Protein levels were normalized to actin and quantified using NIH Image-J software.
To assay for sE-Cad levels, MCF7 Tet.OFF cells were grown in the absence or presence of doxycycline for 3 days and then transfected with TAZ siRNA #1 using Lipofectamine-2000. […] After 72 hours, nuclear and cytoplasmic extracts were obtained using the High/Low salt extraction method described above and analyzed for sE-Cad, TAZ, and RUNX2. Protein levels were normalized to actin and quantified using NIH Image-J software.
MCF7 Tet.OFF cells were pretreated in the absence or presence of doxycycline for 3 days. […] Nuclear and cytoplasmic extracts were obtained using High/Low salt extraction method and protein levels analyzed by Western blot (see above).

For orientation: inhibition means the percentage by which the read-out fell short of the control.

RUNX2, sequence (Q13950 whole entry): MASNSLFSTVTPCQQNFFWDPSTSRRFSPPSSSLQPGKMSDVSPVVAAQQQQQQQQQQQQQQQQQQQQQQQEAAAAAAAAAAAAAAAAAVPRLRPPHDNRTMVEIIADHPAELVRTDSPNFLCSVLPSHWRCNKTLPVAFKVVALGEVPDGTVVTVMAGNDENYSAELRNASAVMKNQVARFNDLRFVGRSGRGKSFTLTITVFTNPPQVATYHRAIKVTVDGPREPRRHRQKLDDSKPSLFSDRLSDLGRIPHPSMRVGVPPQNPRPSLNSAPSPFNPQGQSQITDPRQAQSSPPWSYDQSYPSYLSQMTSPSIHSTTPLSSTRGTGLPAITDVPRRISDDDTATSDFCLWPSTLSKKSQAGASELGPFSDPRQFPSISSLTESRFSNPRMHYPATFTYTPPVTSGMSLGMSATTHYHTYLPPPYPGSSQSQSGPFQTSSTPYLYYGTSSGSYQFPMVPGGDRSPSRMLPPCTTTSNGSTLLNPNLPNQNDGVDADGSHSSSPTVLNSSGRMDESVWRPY

As to `O=C(O)C1C2C=CC(C2)C1C(=O)Nc1ccc(Cl)c(Cl)c1` (stereo not drawn) [compound 1, 3-(N-(3,4-dichlorophenyl)carbamoyl)-5-norbornene-2-carboxylic acid], in the experiment on breast cancer cells (0˜100 μM, over 24 hrs), the “inhibition in cell viability” value was “no significant inhibition”. For the same molecule, the cell growth inhibition entry in the experiment on breast cancer cells (0˜100 μM, over 72 hrs) was “dose- and time-dependent cell growth inhibition”. For the same molecule, the inhibition at 50 µM with breast cancer cells (MDA-MB-468 cells) was > 50%; in the experiment on breast cancer cells (majority of TNBC and luminal type BC cells), < 50%. For the same molecule, the “cell proliferation relative to vehicle controls” value in the experiment on breast cancer cells (ectopic RUNX2-expressing MCF7 and T47D cells, 7 days) was “dramatic decrease”. Moreover, in the experiment with MCF7-tet-off cells, the invasiveness result is recorded as “almost abrogated”. Moreover, in the experiment on BC cells (2-3 weeks), the anchorage-independent cell growth entry was “strongly inhibited”. Besides, the “colony size relative to control” value in the experiment with BC cells (MDA-231, MCF7, MDA-468) is on record as < 1/10. The “Complex I activity” value with Complex I was “increased”. The “nuclear translocation of RUNX2 protein” value on RUNX2 was “did not block or attenuate”. Moreover, at RUNX2 (Empty controls, MDA-468 and MCF7), the S451-p-RUNX2 levels result was “clearly reduced”. Besides, the RUNX2 protein stability entry at RUNX2 (MDA-468 and MDA-231 cells, cycloheximide, 50 μM) is recorded as “increased RUNX2 stability”. Moreover, the “decrease in sE-Cad production” value in the experiment with sE-Cad (RUNX2 negative cells (doxycycline+)) came to 2 fold. Also, the “decline of sE-Cad levels” value in the experiment on sE-Cad (RUNX2 positive cells, 50 μM, by 72 hr) was ~20 fold. The “increase of sE-Cad production” value with sE-Cad (RUNX2 positive cells, 50 μM, first 24 hr) is recorded as 3.5 fold.
